Test results from patent publication US4456604A, “1-(3-Halo-2-pyridinyl) piperazine” (Merck & Co., Inc., priority 1982, dated 1984).
Read-outs that look alike come from different tables or passages of the source.

Experiments:
[1] = biological target: T1, α2-adrenergic receptor (Bos taurus, UniProt Q28838); assay: α2-adrenergic receptor binding ([3H] clonidine binding site, calf cerebral cortex); settings: for affinity for the α2-adrenergic receptors (in words): of the compounds tested, with the exception of compound 5
T1 construct: from tissue; host or cells: calf cerebral cortex
T1 sequence (Q28838 1-468): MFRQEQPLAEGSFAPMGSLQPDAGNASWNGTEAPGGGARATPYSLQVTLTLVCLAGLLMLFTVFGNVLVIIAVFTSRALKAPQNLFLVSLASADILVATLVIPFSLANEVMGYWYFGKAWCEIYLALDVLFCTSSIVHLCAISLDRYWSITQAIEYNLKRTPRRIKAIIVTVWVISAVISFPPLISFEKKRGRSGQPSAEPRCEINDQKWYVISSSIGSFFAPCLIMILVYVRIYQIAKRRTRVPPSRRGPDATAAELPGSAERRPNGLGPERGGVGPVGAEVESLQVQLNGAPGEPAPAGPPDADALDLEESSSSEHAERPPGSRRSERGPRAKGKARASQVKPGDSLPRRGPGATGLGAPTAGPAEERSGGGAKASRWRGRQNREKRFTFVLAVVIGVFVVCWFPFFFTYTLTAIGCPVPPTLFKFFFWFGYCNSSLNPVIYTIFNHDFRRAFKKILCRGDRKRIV
Procedure: (§1) The α1 - and α2 -adrenergic receptor binding was determined for 1-(3-halo-2-pyridinyl)piperazines and a number of other structurally related compounds shown in Table I.
(§2) Binding to the α2 -adrenergic receptor was determined by the method of Lyon and Randall, Life Sciences, 26, 1121 (1980) and also is expressed in Table I as Ki representing the affinity of each compound for the [^3 H] clonidine binding site in calf cerebral cortex.

[2] = biological target: α1-adrenergic receptor; assay: α1-adrenergic receptor binding ([3H] prazosin binding site, calf cerebral cortex); settings: for Ki: [3H] prazosin binding site, calf cerebral cortex; for affinity for the α1-adrenergic receptors (in words): of the compounds tested
Procedure: as §1
Extent of binding to the α1 -adrenergic receptor was determined by the method of Greengrass and Bremner, Eur. J. Pharmacol., 55, 323 (1979) and is expressed in Table I as Ki, representing the affinity of each compound for the [^3 H] prazosin binding site in calf cerebral cortex.

[3] = system: α2-adrenergic receptor; assay: α2-adrenergic receptor binding ([3H] clonidine binding site, calf cerebral cortex); settings: compared to any of the other tested compounds
Procedure: as §1, §2

[4] = system: locomotor depressant effects of methyldopa; settings: rats; Clineschmidt et al. 1980; cited from earlier work
[5] = system: clonidine-induced sedation; settings: man; Autret et al. 1977; cited from earlier work
[6] = system: sedation produced by clonidine; settings: Drew et al. 1979; cited from earlier work
[7] = system: depression; settings: in vivo; cited from earlier work
[8] = system: α2-adrenergic receptors; settings: cited from earlier work
[9] = system: norepinephrine reuptake; settings: cited from earlier work
[10] = system: α1- or α2-adrenergic receptors; settings: Clineschmidt et al. 1979; cited from earlier work
[11] = [3H] clonidine binding site, calf cerebral cortex, read-out: Adrenergic Binding Ki α2

## Clc1cncc(N2CCNCC2)n1 [Compound 9]
[1]
  Ki: 0.127 µM
[2]
  Ki: 2.4 µM

## Brc1cccnc1N1CCNCC1 [Compound 3, 1-(3-bromo-2-pyridinyl)piperazine]
[3]
  selectivity or ratio of Kiα1/Kiα2 (in words): greatest selectivity
[1]; [11]
  Ki: 0.011 µM
[1]
  affinity for the α2-adrenergic receptors (in words): strongest affinity (lowest Ki)
[2]
  Ki: 1.48 µM
  affinity for the α1-adrenergic receptors (in words): weakest affinity (highest Ki)

## Clc1cccc(N2CCNCC2)n1 [Compound 6]
[1]; [11]
  Ki: 0.018 µM
[2]
  Ki: 0.5 µM

## COC(=O)[C@@H]1[C@H]2C[C@H]3c4[nH]c5ccccc5c4CCN3C[C@@H]2CC[C@@H]1O [yohimbine]
[4]
  effect on locomotor depressant effects of methyldopa: antagonizes
[5]
  effect on clonidine-induced sedation: reduce clonidine-induced sedation in man
[6]
  effect on sedation produced by clonidine: antagonizes the sedation produced by clonidine

## CN1CCN(c2ncccc2Br)CC1 [Compound 5]
[1]; [11]
  Ki: 0.0029 µM
[2]
  Ki: 0.16 µM

## Clc1nccnc1N1CCNCC1 [Compound 10]
[1]; [11]
  Ki: 0.16 µM
[2]
  Ki: 26 µM

## Ic1cccnc1N1CCNCC1 [Compound 4]
[1]; [11]
  Ki: 0.042 µM
[2]
  Ki: 1.6 µM

## Fc1cccnc1N1CCNCC1 [Compound 1, 1-(3-fluoro-2-pyridinyl)piperazine]
[3]
  selectivity or ratio of Kiα1/Kiα2 (in words): greatest selectivity
[1]
  Ki: 0.0083 µM
  affinity for the α2-adrenergic receptors (in words): strongest affinity (lowest Ki)
[2]
  Ki: 2.3 µM
  affinity for the α1-adrenergic receptors (in words): weakest affinity (highest Ki)

## Clc1cccnc1N1CCNCC1 [Compound 2, 1-(3-chloro-2-pyridinyl)piperazine]
[3]
  selectivity or ratio of Kiα1/Kiα2 (in words): greatest selectivity
[1]; [11]
  Ki: 0.0079 µM
[1]
  affinity for the α2-adrenergic receptors (in words): strongest affinity (lowest Ki)
[2]
  Ki: 1.8 µM
  affinity for the α1-adrenergic receptors (in words): weakest affinity (highest Ki)

## c1ccc(N2CCNCC2)nc1 [Compound 7]
[1]; [11]
  Ki: 0.037 µM
[2]
  Ki: 2.4 µM

## Clc1ccc(N2CCNCC2)nc1 [Compound 8]
[1]
  Ki: 1 µM

## CN1CCN2c3ccccc3Cc3ccccc3C2C1 (centres unmarked) [Mianserin]
[7]
  clinical antidepressant effectiveness: clinically effective antidepressant
[8]
  α2-adrenergic receptor blockade: blocks α2 -adrenergic receptors
[9]
  in vivo norepinephrine reuptake inhibiting properties: minimal in vivo norepinephrine reuptake inhibiting properties
[10]
  selectivity for α1- or α2-adrenergic receptors: fails to exhibit any important selectivity for α1 - or α2 -adrenergic receptors
